Experiments:
Type in all cases: biochemical
[1] = target: T1, active TAFI (thrombin-activatable fibrinolysis inhibitor, plasma carboxypeptidase B) in clots formed from normal human plasma (Homo sapiens, UniProt Q96IY4); test: turbidometric tPA-induced lysis assay of clots formed from normal human plasma (NHP); details: tPA 294 pmol/L, 37° C., TAFI-dependent profibrinolytic effect, read-out: EC50 (shortening of lysis time)
T1 construct: tissue Haematologic Technologies Inc. (Burlington, Vt.); host or cells: pooled (3 to 4 donors) fresh frozen human plasma
T1 sequence (Q96IY4 115-423): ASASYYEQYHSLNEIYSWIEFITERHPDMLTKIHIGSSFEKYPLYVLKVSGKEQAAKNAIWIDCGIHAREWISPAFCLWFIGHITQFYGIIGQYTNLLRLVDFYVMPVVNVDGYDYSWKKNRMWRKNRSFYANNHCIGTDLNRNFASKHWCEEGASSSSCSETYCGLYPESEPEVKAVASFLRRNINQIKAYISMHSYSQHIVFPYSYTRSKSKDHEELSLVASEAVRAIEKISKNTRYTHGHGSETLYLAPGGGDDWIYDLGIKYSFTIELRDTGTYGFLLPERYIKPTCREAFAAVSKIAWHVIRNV
Protocol: (§1) Preparation of plasma for lysis assays. Pooled (3 to 4 donors) fresh frozen human plasma was purchased from Haematologic Technologies Inc. (Burlington, Vt.) and dialyzed against 4 L of 20 mmol/L HEPES, 150 mmol/L NaCl, pH 7.4 (HBS) at 4° C. with 4 changes overnight. The dialysate, termed normal human plasma (NHP), was stored at -70° C. in 2.0-mL aliquots. TAFI-deficient plasma (TdP) was produced by passing an aliquot, maximally 50 mL, of NHP over a 2.0-mL anti-TAFI affinity column (MoAbTAFI#16-Sepharose 4B) equilibrated in HBS. Depletion of TAFI was verified by Western blot analysis of a sample from each individual fraction. Only the flow-through fractions depleted of TAFI with an A280 equal to the NHP loaded onto the column were pooled and subsequently stored in 2.0 mL aliquots at -70° C. Pooled plasma samples were also subjected to Western blotting and TAFI concentrations were quantified by ELISA.
(§2) Lysis assay. […] After adding the plasma to the microtiter wells, the plate was transferred to a THERMOMAX microtiter plate reader (Molecular Devices). Temperature was maintained at 37° C. and the turbidity was monitored at 405 nm and 2.5-minute intervals. […]
(§3) 3. […] The TAFI-dependent profibrinolytic effect of each compound was evaluated by determination of lysis time of clots formed from both NHP and TdP in the presence of various concentrations of each inhibitor. […]

[2] = tested on: clots formed from TAFI-deficient human plasma (TdP); test: turbidometric tPA-induced lysis assay of clots formed from TAFI-deficient plasma (TdP); details: every concentration studied; lysis time approximately 50 minutes
Protocol: as §1, §2, §3

[3] = target: T2, thrombin in complex with thrombomodulin (activation of purified human TAFI) (Homo sapiens, UniProt P00734); test: two-stage TAFI activation assay, chromogenic substrate hippuryl arginine; details: FPA-CK 50 nmol/L present during incubation of TAFI with thrombin and thrombomodulin, 10 minutes at 22° C.
T2 construct: Prothrombin was purified as described previously and used to prepare thrombin; made in house
Protocol: In a 25-μL reaction volume, TAFI zymogen (0.8 μmol/L final concentration) is incubated with thrombomodulin (40 nmol/L final concentration), Ca^2+ (5.0 mmol/L final concentration), and thrombin (8.0 nmol/L final concentration) in the presence and absence of the putative peptide for 10 minutes at 22° C. Thrombin is then inhibited by the addition of the Phe-Pro-Arg chloromethyl ketone (FPA-CK 50 nmol/L final concentration). […] A negative control may be used by adding FPA-CK at the initiation of the reaction. In the negative control TAFI is not activated because the thrombin is inhibited from functioning. […] The time course of hippuric acid formation is measured by first correcting the volume in each of the reactions by the addition of a volume of buffer equal to that of the added putative peptide. […] The time course of hippuric acid formation at 22° C. is followed by monitoring absorbance at 254 nm and 0.5 minute intervals using a spectrophotometer such as Beckman DU-65 spectrophotometer (Fullteron, Calif.).
Hydrolysis of the chromogenic substrate, hipurryl arginine, was used to determine whether MoAbTAFI#16 inhibits active TAFI. […] The time course of hippuric acid formation at 22° C. was followed by monitoring absorbance at 254 nm and 0.5 minute intervals using a Beckman DU-65 spectrophotometer (Fullteron, Calif.). […]

SMILES | EC50 [1] [µM] | effect on lysis time of clots formed from TdP [2] | active TAFI activity generated [3]
N=C(N)NCCSC(CC(=O)O)C(=O)O (stereo not drawn) [GEMSA, 2-Guanidinoethylmercaptosuccinic acid] | 90 | did not affect lysis time | 
N=C(N)NCCC[C@H](NC(=O)[C@@H]1CCCN1C(=O)[C@@H](N)Cc1ccccc1)C(=O)CCl [FPA-CK, Phe-Pro-Arg chloromethyl ketone] |  |  | No active TAFI activity was generated

Source: patent publication US5993815A, “Methods and compositions for inhibiting the activation of thrombin-activatable fibrinolysis inhibitor (TAFI)” (University of Vermont, priority 1997, dated 1999)
